# Assay results: US20230022705A1, “Topical Delivery System Containing Cellulose Nanofibers” (ELC Management LLC, priority 2019, published 2023)
# Like-named read-outs stand apart in the source and are kept apart here.
# Test system: MatTek 300 skin (a skin model constructed from live cells)
# Assay: Penetration study using MatTek skin, formulation with vs without cellulose nanofibers, UPLC analysis
# Format: in vitro ADME
# Protocol: A testing formulation with and without nanocellulose and various skin care actives was prepared. The formulation was prepared by mixing the Phase I components until all of the solids were dissolved (e.g., about 10-15 min). The Phase 2 components were added to the Phase 1 components and mixed until lump free (e.g., about 10 min). The Phase 3 components were pre-mixed until lump free and slowly added to the initial mixture and mixed until uniform (e.g., about 30 min). The Phase 4 components were mixed until uniform and slowly added to the initial mixture and mixed to uniformity (e.g., about 15-20 min). The Phase 5 components were premixed and then added to the mixture and mixed until uniform (e.g., about 15-20 min). The Phase 6 components were added to the mixture under Silverson to adjust the pH to about 5.5 to 6.5 to increase the stability of the AA2G and mixed until lump free (e.g., about 15-20 min). A penetration study was then performed using the base formula without nanocellulose as a control. […] In a 6-well plate, MatTek 300 skin (a skin model constructed from live cells, obtained from MatTek) was placed in the well with 2.00 mL of incubation medium (also provided by MatTek). The medium was removed, and 2.0 mL of phosphate buffer saline/propandiol (PBS/PPD) 1:1 mixture was added. The PBS/PPD mixture was then removed. This washing process was repeated twice. Then 2.0 mL of the PBS/PPD mixture was added as the collection phase. To the top of each skin, 400 μl of a sample was loaded. The skin was then incubated at 37° C. for 72 hours. Finally, the PBS/PPD collection phase was filtered through 0.45 μm PTFE syringe filter into high performance liquid chromatography (HPLC) vials. Waters ACQUITY H ultra-performance liquid chromatography (UPLC) was used to analyze the collected samples from the penetration study.
structure (smiles),measurement,setting,value
"O=C1O[C@H]([C@@H](O)CO)C(O)=C1O[C@H]1O[C@H](CO)[C@@H](O)[C@H](O)[C@H]1O [AA2G, ascorbic acid 2-glucoside]","penetration efficacy, formulation with cellulose nanofibers vs without (in words)",,significantly enhanced
"CC1=C(/C=C/C(C)=C/C=C/C(C)=C/CO)C(C)(C)CCC1 [Retinol, reference compound]","penetration within the skin, composition with nanocellulose vs without (in words)",,reduced
same,rate of release from composition with nanocellulose (in words),,slower rate of release
COc1ccc(CCCc2ccc(O)cc2O)c(OC)c1C [UP302],"penetration efficacy, formulation with cellulose nanofibers vs without (in words)","MatTek 300 skin, 37° C., 72 hours, PBS/PPD collection phase","modulated, reduced, and limited"
O=C(c1ccccc1)c1ccccc1 [benzophenone],"penetration efficacy, composition with nanocellulose vs without (in words)","benzophenone 4% (w/w of the total composition), sunscreen formulations",directionally reduced
OCCOc1ccccc1 [phenoxyethanol],"penetration efficacy, composition with nanocellulose vs without (in words)",,not increased
